This passage reports MIC results from patent publication CN106344577A, “Fistulains A在抗幽门螺杆菌药物中的应用” (Quanjiao Xianqi Pharmaceutical Technology Co Ltd, priority 2016, dated 2017).

Values after ≈ are worked out from the molar mass of the structure shown.

The subject of the test is Helicobacter pylori (幽门螺杆菌). Nature of the test: Agar dilution method, MIC against H. pylori. Format: cell-based. Particulars: same value for each of 6 strains: 5 random clinical strains (Hp001, Hp003, Hp004, Hp018, Hp036) and standard strain ATCC43504, complete growth inhibition, 37℃, 72 h, microaerobic, read-out: minimum inhibitory concentration (MIC). (Agar dilution tests growth on a series of plates holding different concentrations.)

For the compound `CC1(C)S[C@@H]2[C@H](NC(=O)[C@H](N)c3ccccc3)C(=O)N2[C@H]1C(=O)O` [氨苄西林], the MIC was determined as 3.3 mg/L (≈ 9.44 µM).
